{"source": "paper PMC10353390", "about": "“Biological and Structural Analyses of New Potent Allosteric Inhibitors of HIV-1 Integrase” (Antimicrobial Agents and Chemotherapy, 2023)", "key": {"[1]": {"test_system": "primary HIV-1 isolates with polymorphisms at IN positions 124 and 125", "assay": "Multiple-round infection of MT4 cells with primary HIV-1 isolates polymorphic at IN positions 124 and 125", "assay_type": "cell-based", "details": "primary isolate", "experimental": "Next, we evaluated the potency of the BDM-2 series of INLAIs against several primary HIV-1 isolates with polymorphisms at IN positions 124 and 125.\n(§1) MT4 cells growing exponentially at the density of 10^6/mL were infected with HIV-1 strain NL4-3 at a multiplicity of infection (MOI) of 0.001 for 2 h in the presence of different concentrations of compounds, and the CellTiter-Glo luminescent reagent (Promega) was used to quantify cell viability as described previously ([12])."}, "HXB2 HIV-1 strain": {"test_system": "HXB2 HIV-1 strain", "assay": "Multiple-round infection assay in MT4 cells, HXB2", "assay_type": "cell-based", "details": "Human immunodeficiency virus 1, HXB2; multiple-round infection, MT4 cells; mean ± SD, n > 5; read-out: EC50 HXB2", "experimental": "Antiretroviral activity of BDM-2 and its analogs was first evaluated in lymphoblastoid cell line MT4 and in primary human T lymphocytes using NL4-3 and HXB2 laboratory HIV-1 isolates.\nas §1"}, "[2]": {"biological_target": "HIV-1 IN-LEDGF/p75 interaction (Human immunodeficiency virus type 1 group M subtype B, UniProt P12497)", "assay": "biochemical", "quoted_text": "The INLAIs were tested for the ability to inhibit the HIV-1 IN-LEDGF/p75 interaction in a homogeneous time-resolved fluorescence (HTRF) assay. Our assays used either full-length IN and LEDGF/p75 proteins or their respective minimally sufficient interaction domains: the CCD of HIV-1 IN and the IBD of LEDGF/p75 (Table 1).\nHTRF-based CCD-IBD interaction, IN-LEDGF/p75 interaction and IN multimerization assays were performed as described previously ([12])."}, "[3]": {"test_system": "VSV-G-pseudotyped NL4-3Δenv-luc", "assay": "microbe, parasite or virus in culture", "assay_type": "cell-based, HIV-1"}, "[4]": {"test_system": "recombinant NL4-3 viruses with polymorphisms at IN positions 124 and 125", "assay": "Multiple-round infection of MT4 cells with recombinant NL4-3 viruses polymorphic at IN positions 124 and 125", "assay_type": "cell-based, HIV-1", "description": "Located on the HIV-1 IN CCD dimerization interface, the principal INLAI binding pocket overlaps with a hot spot of amino acid sequence polymorphism involving IN residues 124 and 125 ([16]). To test if the new INLAIs maintained antiviral activity against major polymorphisms, we introduced all major combinations of residues found in circulating HIV-1 strains at positions 124 and 125 into NL4-3 HIV-1 molecular clone. In total, we evaluated 15 such combinations that collectively covered 98% of all HIV-1 clade polymorphisms involving these positions ([48]). To gauge effects on the antiviral activity, we calculated the EC50 fold change (FC) relative to wild type NL4-3 HIV-1 strain that features Thr124 and Thr125 (TT; specific polymorphisms are referred to by a single letter amino acid code).\nas §1"}, "HIV-1 IN": {"biological_target": "T1, HIV-1 IN (Human immunodeficiency virus type 1 group M subtype B, UniProt P12497)", "T1 construct": "made in house", "assay": "HTRF IN multimerization assay", "assay_type": "biochemical", "details": "mean ± SD", "description": "A key property of INLAIs is the ability to promote HIV-1 IN homo-multimerization ([39][–][42]). […] The maximal signal (plateau) in our IN aggregation assay corresponds to the highest HTRF signal increase under saturating INLAI concentration, relative to baseline level. Thus, MUT916, MUT884, MUT871, and MUT872 increased HIV-1 IN aggregation 3.7 to 4.4-fold, while BDM-2, BI-224436, and S-I-82 did so 5 to 6-fold (Table 1)."}, "NL4-3 HIV-1 strain": {"test_system": "NL4-3 HIV-1 strain", "assay": "Multiple-round infection assay in MT4 cells, NL4-3", "assay_type": "cell-based", "details": "MT4 cells"}, "[5]": {"test_system": "NL4-3 HIV-1 with INLAI-selected IN single point mutations", "assay_type": "cell-based"}, "[6]": {"assay": "Cytotoxicity assay in MT4 cells", "assay_type": "cell-based", "details": "human, MT4 cells (proliferating human T-cell line), CellTiter-Glo", "description": "Growth inhibition was monitored in a proliferating human T-cell line (MT4) with different concentrations of compounds, using the CellTiter-Glo luminescent reagent (Promega), as previously described ([12])."}, "[7]": {"biological_target": "CCD of HIV-1 IN and IBD of LEDGF/p75 (Human immunodeficiency virus type 1 group M subtype B, UniProt P12497)", "assay": "biochemical"}, "[8]": {"test_system": "HIV-1 strains resistant to INSTIs, NRTIs, NNRTIs or PIs", "assay_type": "cell-based", "experimental": "To this end, we used both recombinant viruses constructed by introducing described drug resistance mutations into NL4-3 HIV-1 clone as well as drug-resistant clinical HIV-1 isolates.\nas §1"}, "[9]": {"details": "INSTI-resistant, NL4-3 background"}}}
{"smiles": "Cc1ccc(C2CC2)c(-c2ccc3c(c2)CCCO3)c1[C@H](OC1CC1)C(=O)O", "note": "[MUT872]", "values": [{"measurement": "Fold change in EC50 relative to parental NL4-3, CAM2BBY (CRF02)", "setting": "[1]; IN 124/125 AA", "value": 1}, {"measurement": "Fold change in EC50 relative to parental NL4-3, E0836M4 (D)", "setting": "[1]; IN 124/125 AA", "value": 1}, {"measurement": "Fold change in EC50 relative to parental NL4-3, KER2008 (A)", "setting": "[1]; IN 124/125 AA", "value": 1}, {"measurement": "Fold change in EC50 relative to parental NL4-3, NP1525 (CRF01)", "setting": "[1]; IN 124/125 AA", "value": 1}, {"measurement": "Fold change in EC50 relative to parental NL4-3, NP1695 (CRF02)", "setting": "[1]; IN 124/125 AA", "value": 1}, {"measurement": "Fold change in EC50 relative to parental NL4-3, TZA125 (C)", "setting": "[1]; IN 124/125 AA", "value": 0.4}, {"measurement": "Fold change in EC50 relative to parental NL4-3, KSM4030 (A)", "setting": "[1]; IN 124/125 GA", "value": 2}, {"measurement": "Fold change in EC50 relative to parental NL4-3, vGA (C)", "setting": "[1]; IN 124/125 GA", "value": 4}, {"measurement": "Fold change in EC50 relative to parental NL4-3, 99ET14 (C)", "setting": "[1]; IN 124/125 NA", "value": 1}, {"measurement": "Fold change in EC50 relative to parental NL4-3, NP1538 (B)", "setting": "[1]; IN 124/125 NA", "value": 2}, {"measurement": "Fold change in EC50 relative to parental NL4-3, vNA_1 (B)", "setting": "[1]; IN 124/125 NA", "value": 1}, {"measurement": "Fold change in EC50 relative to parental NL4-3, vNA_2 (CRF02)", "setting": "[1]; IN 124/125 NA", "value": 2}, {"measurement": "Fold change in EC50 relative to parental NL4-3, vNV (B)", "setting": "[1]; IN 124/125 NV", "value": 1}, {"measurement": "Fold change in EC50 relative to parental NL4-3, vSA_1 (B)", "setting": "[1]; IN 124/125 SA", "value": 2}, {"measurement": "Fold change in EC50 relative to parental NL4-3, vSA_2 (CRF02)", "setting": "[1]; IN 124/125 SA", "value": 2}, {"measurement": "Fold change in EC50 relative to parental NL4-3, vTA_1 (B)", "setting": "[1]; IN 124/125 TA", "value": 2}, {"measurement": "Fold change in EC50 relative to parental NL4-3, vTA_2 (CRF02)", "setting": "[1]; IN 124/125 TA", "value": 2}, {"measurement": "EC50", "setting": "HXB2 HIV-1 strain", "value": "18 ± 1", "unit": "nM"}, {"measurement": "IC50", "setting": "[2]", "value": "170 ± 20", "unit": "nM"}, {"measurement": "EC50 ratio (single/multiple-round infection)", "setting": "[3]", "value": 196}, {"measurement": "EC50", "setting": "[3]; Human immunodeficiency virus 1, NL43, MT4, read-out: EC50 in single-round infection", "value": "8800 ± 300", "unit": "nM"}, {"measurement": "Fold change in EC50 relative to parental NL4-3, AA", "setting": "[4]; recombinant NL4-3, IN 124/125 AA", "value": 1}, {"measurement": "Fold change in EC50 relative to parental NL4-3, AM", "setting": "[4]; recombinant NL4-3, IN 124/125 AM", "value": 0.3}, {"measurement": "Fold change in EC50 relative to parental NL4-3, AT", "setting": "[4]; recombinant NL4-3, IN 124/125 AT", "value": 1}, {"measurement": "Fold change in EC50 relative to parental NL4-3, AV", "setting": "[4]; recombinant NL4-3, IN 124/125 AV", "value": 0.5}, {"measurement": "Fold change in EC50 relative to parental NL4-3, GA", "setting": "[4]; recombinant NL4-3, IN 124/125 GA", "value": 2}, {"measurement": "Fold change in EC50 relative to parental NL4-3, GT", "setting": "[4]; recombinant NL4-3, IN 124/125 GT", "value": 2}, {"measurement": "Fold change in EC50 relative to parental NL4-3, NA", "setting": "[4]; recombinant NL4-3, IN 124/125 NA", "value": 1}, {"measurement": "Fold change in EC50 relative to parental NL4-3, NT", "setting": "[4]; recombinant NL4-3, IN 124/125 NT", "value": 1}, {"measurement": "Fold change in EC50 relative to parental NL4-3, NV", "setting": "[4]; recombinant NL4-3, IN 124/125 NV", "value": 1}, {"measurement": "Fold change in EC50 relative to parental NL4-3, SA", "setting": "[4]; recombinant NL4-3, IN 124/125 SA", "value": 1}, {"measurement": "Fold change in EC50 relative to parental NL4-3, ST", "setting": "[4]; recombinant NL4-3, IN 124/125 ST", "value": 1}, {"measurement": "Fold change in EC50 relative to parental NL4-3, TA", "setting": "[4]; recombinant NL4-3, IN 124/125 TA", "value": 1}, {"measurement": "Fold change in EC50 relative to parental NL4-3, TM", "setting": "[4]; recombinant NL4-3, IN 124/125 TM", "value": 0.2}, {"measurement": "Fold change in EC50 relative to parental NL4-3, TV", "setting": "[4]; recombinant NL4-3, IN 124/125 TV", "value": 1}, {"measurement": "AC50", "setting": "HIV-1 IN; concentration for 50% maximum activation of multimerization", "value": "43 ± 11", "unit": "nM"}, {"measurement": "IN multimerization Plateau", "setting": "HIV-1 IN; maximum multimerization reached versus baseline", "value": "440 ± 48", "unit": "%"}, {"measurement": "EC90", "setting": "NL4-3 HIV-1 strain; Human immunodeficiency virus 1, NL43, multiple-round infection, from dose response curves, read-out: EC90 NL4-3", "value": "61 ± 19", "unit": "nM"}, {"measurement": "EC50", "setting": "NL4-3 HIV-1 strain; Human immunodeficiency virus 1, NL43, multiple-round infection, mean ± SD, n > 5, read-out: EC50 NL4-3", "value": "45 ± 12", "unit": "nM"}, {"measurement": "Selectivity index CC50/EC50 NL4-3", "setting": "NL4-3 HIV-1 strain", "value": "3,088"}, {"measurement": "EC50 fold change compared to wild type NL4-3, A128T", "setting": "[5]", "value": 7}, {"measurement": "EC50 fold change compared to wild type NL4-3, H171Q", "setting": "[5]", "value": 1}, {"measurement": "EC50 fold change compared to wild type NL4-3, N222K", "setting": "[5]", "value": 2}, {"measurement": "EC50 fold change compared to wild type NL4-3, T174I", "setting": "[5]", "value": 15}, {"measurement": "EC50 fold change compared to wild type NL4-3, Y99H", "setting": "[5]", "value": 2}, {"measurement": "CC50", "setting": "[6]", "value": "139000 ± 29000", "unit": "nM"}, {"measurement": "IC50", "setting": "[7]", "value": "420 ± 70", "unit": "nM"}, {"measurement": "Fold change in EC50 relative to NL4-3, E92Q", "setting": "[8]; [9]", "value": 1}, {"measurement": "Fold change in EC50 relative to NL4-3, G140S", "setting": "[8]; [9]", "value": 1}, {"measurement": "Fold change in EC50 relative to NL4-3, G140S/Q148H", "setting": "[8]; [9]", "value": 1}, {"measurement": "Fold change in EC50 relative to NL4-3, N155H", "setting": "[8]; [9]", "value": 1}, {"measurement": "Fold change in EC50 relative to NL4-3, Q148H", "setting": "[8]; [9]", "value": 1}, {"measurement": "Fold change in EC50 relative to NL4-3, Y143R", "setting": "[8]; [9]", "value": 0.5}, {"measurement": "Fold change in EC50 relative to NL4-3, NLAY351717", "setting": "[8]; NRTI-resistant clone", "value": 1}, {"measurement": "Fold change in EC50 relative to NL4-3, NLAY351753", "setting": "[8]; NRTI/NNRTI-resistant clone", "value": 1}, {"measurement": "Fold change in EC50 relative to NL4-3, K103N/Y181C", "setting": "[8]; NRTI/NNRTIs group, NL4-3 background", "value": 1}, {"measurement": "Fold change in EC50 relative to NL4-3, ARP-4595", "setting": "[8]; PI-resistant virus", "value": 1}, {"measurement": "Fold change in EC50 relative to NL4-3, ARP-4596", "setting": "[8]; PI-resistant virus", "value": 1}, {"measurement": "Fold change in EC50 relative to NL4-3, ARP-11801", "setting": "[8]; PI-resistant virus", "value": 2}, {"measurement": "Fold change in EC50 relative to NL4-3, ARP-11803", "setting": "[8]; PI-resistant virus", "value": 1}, {"measurement": "Fold change in EC50 relative to NL4-3, ARP-11807", "setting": "[8]; PI-resistant virus", "value": 1}, {"measurement": "Fold change in EC50 relative to NL4-3, ARP-11808", "setting": "[8]; PI-resistant virus", "value": 2}]}
